What all share (assay): DTP human tumour cell line panel, 48 h
Test [1] deals with DLD-1.
Test [2] concerns M19-MEL.
The test system of test [3] is BT-549.
Test [4] relates to DU-145.
Test [5] deals with Hs-578T.
Test [6] has as its system MDA-MB-231.
Test [7] has as its system XF498.
Test [8] concerns MDA-N.
Test [9] has as its system RXF 631.

This is an account of results in ChEMBL document CHEMBL1201862, “PubChem BioAssay data set” (2004).

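Five concentrations, 48 hours, 96-well plates. GI50: concentration for 50% inhibition of growth.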 Active and inactive are the calls of the source. No stated cut-off is given here; in the data, active = GI50 up to about 1.1 µM and inactive = higher.

As usually defined, the GI50 is the concentration at which growth is held to half of that of the control. For the molecule `COc1ccc(/C=N/n2c(C)nc3c(sc(=S)n3-c3ccccc3)c2=O)cc1`, the GI50 was > 100 µM (inactive) in test [1] and 63.2 µM (inactive) in [2].
`CCCS(=O)(=O)O`: the GI50 in test [3], in [4], in [5] and in test [6] was > 100 µM (inactive) each time.
Take `CCC1(OC(=O)CN)C(=O)OCc2c1cc1n(c2=O)Cc2cc3ccccc3nc2-1` (centres undefined): the 50% growth inhibitory concentration (GI50) was 0.0593 µM (active) in [3]; 0.25 µM (active) in test [1]; 0.01 µM (active) in test [4]; 6.14 µM (inactive) in test [5]; 0.123 µM (active) in test [2]; 0.38 µM (active) in test [6]. Also, the GI50 in [7] was 0.147 µM (active).
On to `Cc1nnc(Nc2ccc(Cl)cc2)o1`, for which the GI50 in test [4], in test [5], in [6] and in [8] was > 10 µM (inactive) in each case.
Take `COc1ccc(C(CC(=O)c2ccc(O)cc2)C(C(=O)c2ccc(O)cc2)C(c2ccc(OC)cc2)C2C(=O)NC(=S)NC2=O)cc1` (centres undefined): the GI50 in test [3] was 18.5 µM (inactive); in [4], 14.9 µM (inactive); in test [5], 26.7 µM (inactive); in test [6], 20.7 µM (inactive); in [8], 18.8 µM (inactive).
On to `COc1ccc(C2N(NC(=O)c3ccncc3)C(=O)CS2(=O)=O)cc1F` (centres undefined), for which the GI50 in [1], in [9] and in test [7] was > 100 µM (inactive) each time.
`COC1OC(CS(=O)(=O)O)C(O)C(O)C1O` (centres undefined): the GI50 in [3], in test [4], in test [5] and in test [8] was > 100 µM (inactive) each time.
Turning to `O=C1CCC(c2ccccc2)=NN1c1nsc2ccccc12`, the GI50 in test [2] was > 100 µM (inactive).
Regarding `Cc1cc2c(ccc[n+]2[O-])[n+]([O-])c1`, the GI50 in test [1], in [2] and in test [7] was > 100 µM (inactive) in each case.
Take `CC1C(=O)N(c2ccccc2)NC12CCCc1ccccc12` (centres undefined): the GI50 in test [3], in test [4], in test [5], in [6] and in test [8] was > 100 µM (inactive) each time.
As to `NC1CCCCC1`, the GI50 was 200 µM (inactive) in [1] and 187 µM (inactive) in test [2].
On to `CC(C)OP(=O)(OC(C)C)c1nn(-c2ccc([N+](=O)[O-])cc2)c(=N)s1`, for which the GI50 was > 100 µM (inactive) in test [1], > 100 µM (inactive) in test [2] and 89.5 µM (inactive) in test [7].
Regarding `CC(C)(C)C(=O)OCC1C(=O)OCC1C(=O)N1Cc2cc3ccccc3nc2C1` (centres undefined), the GI50 was 3.14 µM (inactive) in test [3]; 1.55 µM (inactive) in test [1]; 16.4 µM (inactive) in test [4]; 15.3 µM (inactive) in test [5]; 3.54 µM (inactive) in test [2]; 4.62 µM (inactive) in test [6]. The GI50 in [8] is 3.83 µM (inactive).
On to `O=C(NC1C/C(=N/O)c2c(Br)sc(Br)c21)C(F)(F)F` (centres undefined), for which the GI50 in test [3] was 32.1 µM (inactive); in test [4], 27.5 µM (inactive); in test [5] it was 11.2 µM (inactive); in test [6] it was 13.1 µM (inactive); in test [8], 32.3 µM (inactive).
The matching figures for `C=CC(=O)NC(O)(C(=O)OCC)C(F)(F)F` (centres undefined): > 100 µM (inactive), > 100 µM (inactive), > 100 µM (inactive), > 100 µM (inactive) and > 100 µM (inactive).
For `Cc1[nH]c2ncn(/N=C/c3ccccc3O)c(=N)c2c1Cc1ccccc1`, in that order: 37.2 µM (inactive), > 100 µM (inactive), 96.2 µM (inactive), 24.9 µM (inactive) and 26 µM (inactive).
As to `COc1cc(C2C(=O)C(Cl)N2Nc2nc(C)cc(O)n2)cc(OC)c1OC` (centres undefined), in test [2], the GI50 is 18.7 µM (inactive).
Regarding `COc1cc([C@@H]2c3cc4c(cc3[C@@H](c3c(O)cc(O)c5c3O[C@H](c3ccc(O)c(O)c3)[C@@H](O)C5)[C@H]3COC(=O)[C@H]23)OCO4)cc(OC)c1O`, the GI50 in [3] is > 100 µM (inactive); in test [4], > 100 µM (inactive); in [5], > 100 µM (inactive); in test [6], > 100 µM (inactive); in test [8] it was 34.7 µM (inactive).
For the molecule `CO[C@H]1C=C[C@@]23c4cc5c(cc4CO[C@]2(O)CN(C)[C@H]3C1)OCO5`, the GI50 in [3], in test [4], in test [5], in test [6] and in [8] was > 100 µM (inactive) throughout.
For `CC(SC(=S)N1CCOCC1)C(=O)Nc1nnc(-c2ccc(Cl)cc2)o1` (centres undefined), the GI50 in test [3] was > 100 µM (inactive); in [4], 79.6 µM (inactive); in test [5] it was > 100 µM (inactive); in [6] it was 51.5 µM (inactive).
As for `Cc1ccc(NC(=S)NNC(=O)c2cc(-c3ccccc3)nc3ccccc23)cc1C`, the GI50 is 18.7 µM (inactive) in [3]; 22.4 µM (inactive) in test [4]; 36.1 µM (inactive) in [5]; 20.3 µM (inactive) in test [6]; 17.2 µM (inactive) in [8].
With `Cc1ccc(CCC(=O)C(=O)O)s1`, the GI50 in test [2], in test [9] and in test [7] was > 100 µM (inactive) in each case.
For `O=C(N/N=C/C=C/c1ccccc1)[C@H](O)[C@@H](O)C(=O)N/N=C/C=C/c1ccccc1`, the GI50 in [1] and in test [2] was > 100 µM (inactive) throughout.
Turning to `NC(Cc1c[nH]c2ccccc12)C(=O)O` (stereo not drawn) [DL-TRYPTOPHAN], the GI50 in test [1] and in [2] was > 300 µM (inactive) each time.
For `CC(=O)[C@H]1CCC2[C@@H]3CC=C4C(O)C(OS(=O)(=O)O)CC[C@]4(C)C3CC[C@@]21C` (some centres undefined), the GI50 in test [1] and in test [2] was > 100 µM (inactive) each time.
Take `CC1[C@@H]2CC=C3C4CCC5Cc6nc7c(nc6C[C@@]5(C)C4CC(=O)[C@]32CO[C@@]1(O)C(O)CC(C)(C)O)CC1CCC2C3=C[C@H]4O[C@@]5(O[C@@](C)(CO)C[C@@H]5O)C(C)[C@@]4(O)[C@]3(C)[C@@H](O)CC2[C@]1(C)C7` (some centres undefined): the 50% growth inhibitory concentration (GI50) was 0.111 µM (active) in [1], 0.237 µM (active) in test [2] and 0.00242 µM (active) in test [7].
As for `O=c1ccc2cc3ccc4cccc5ccc(c2o1)c3c45`, the GI50 was > 100 µM (inactive) in test [1], > 100 µM (inactive) in [2], 80 µM (inactive) in test [9] and 12 µM (inactive) in test [7].
Take `O=C1CN2C(Cl)(Cl)C2(c2ccccc2)c2cc(Cl)ccc2N1CC1CC1` (centres undefined): the GI50 in test [1] is 16.9 µM (inactive); in test [2], 35.4 µM (inactive).
`O=C1C=CC=C/C1=C1/SC(c2ccccc2)=C(O)N1c1ccccc1`: the GI50 in test [2] is > 100 µM (inactive).
For the molecule `CCN1CCC(O)(/C=C/c2ccc(C)cc2)C(C(=O)/C=C/c2ccc(C)cc2)C1` (centres undefined), the GI50 in test [3] is 3.5 µM (inactive); in test [4], 11.8 µM (inactive); in test [5], 1.86 µM (inactive); in test [6], 2.07 µM (inactive); in test [8], 3.18 µM (inactive).
Consider `CN(C)c1ccc(/C=C2/SC(=S)NC2=O)cc1`, for which the GI50 in test [3] was > 100 µM (inactive); in test [4], > 100 µM (inactive); in [5] it was > 100 µM (inactive); in [6], 90.8 µM (inactive); in [8], > 100 µM (inactive).
Turning to `C/C(=C1\N=C(c2ccccc2)OC1=O)c1ccccc1`, the concentration for 50% growth inhibition (GI50) in test [3] is 0.61 µM (active); in [4], > 100 µM (inactive); in test [5] it was > 100 µM (inactive).
In the case of `CCCCC1(N=[N+]=[N-])C(=O)c2cccc3c2N(CCC3)C1=O` (centres undefined), the GI50 in test [3], in test [4], in test [5], in test [6] and in test [8] was > 100 µM (inactive) throughout.
Take `CCN(CC)C(=O)c1cc(OC(C)C)ccc1-c1c(C)cc(OC(C)C)c(OC)c1OC`: the GI50 in test [1] was 40.3 µM (inactive); in test [7], 25.8 µM (inactive).
